Consider seven molecules from patent US8318779B2, “Lysine related derivatives as HIV aspartyl protease inhibitors” (priority 2006, dated 2012).

The test system of assay [1] is clinically isolated HIV strain r13363 harboring several mutations. Put plainly: Cellular anti-viral assay in HIV-infected MT4-LTR-EGFP cells (GFP reporter), clinically isolated mutant strain. Format: cell-based. The method, then:
Because of the increasing emergence of drug resistant HIV strains, the present compound was also tested for its potency against a clinically isolated HIV strain harboring several mutations. These mutations are associated with resistance to protease inhibitors and result in viruses that show various degrees of phenotypic cross-resistance to the currently commercially available drugs such as for instance saquinavir, ritonavir, nelfinavir, indinavir and amprenavir. The viral strain tested R13363 contains mutations as indicated below.
(§1) The cellular assay was performed according to the following procedure.
(§2) HIV- or mock-infected MT4-LTR-EGFP cells were incubated for three days in the presence of various concentrations of the compound according to the invention. As reference compounds APV, IDV, RTV, NFV, TPV and LPV were used. Upon infection, the viral tat protein activates the GFP reporter. At the end of the incubation period, the GFP signal was measured. In the virus control samples (in the absence of any inhibitor) the maximal fluorescent signal was obtained. The inhibitory activity of the compounds were monitored on the virus-infected cells and were expressed as EC50. These values represent the amount of the compound required to protect 50% of the cells from virus infection.

Assay [2] has as its system wild type laboratory HIV strain (WT IIIB-2-001). Put plainly: Cellular anti-viral assay in HIV-infected MT4-LTR-EGFP cells (GFP reporter), wild type strain. The class given is cell-based. The procedure: The compound having structural formula (III) was tested in a cellular assay using the MT4-LTR-EGFP cells for anti-viral activity.
as §1, §2

The mark [3] stands for this setting: Human immunodeficiency virus 1, read-out: HIV-AVE-MT4LTREGFP-r13363 pEC50 (converted).
Where [4] appears, read: Human immunodeficiency virus 1, IIIB, read-out: HIV-AVE-MT4LTREGFP-IIIB pEC50 (converted).

Read-outs that look alike come from different tables or passages of the source.

In the case of `CC(C)CN(C[C@@H](O)[C@H](Cc1ccccc1)NC(=O)O[C@H]1CCOC1)S(=O)(=O)c1ccc(N)cc1` [APV, amprenavir], the EC50 in assay [1] (setting [3]) is 10000 nM; in assay [2] (setting [4]) it was 50.1 nM.
For `CCC[C@@]1(CCc2ccccc2)CC(O)=C([C@H](CC)c2cccc(NS(=O)(=O)c3ccc(C(F)(F)F)cn3)c2)C(=O)O1` [TPV], in assay [1] (reference compounds, clinically isolated HIV strain r13363, MT4-LTR-EGFP cells), the “HIV-AVE-MT4LTREGFP-r13363 pEC50” value was found to be 6.3. In addition, the “HIV-AVE-MT4LTREGFP-IIIB pEC50” value in assay [2] (reference compounds, wild type (IIIB), MT4-LTR-EGFP cells) is 6.3 =.
Take `Cc1c(O)cccc1C(=O)N[C@@H](CSc1ccccc1)[C@H](O)CN1C[C@H]2CCCC[C@H]2C[C@H]1C(=O)NC(C)(C)C` [NFV, nelfinavir]: the EC50 in assay [1] (setting [3]) was 1580 nM; in assay [2] (setting [4]), 63.1 nM.
As for `COC(=O)N[C@H](C(=O)NCCCC[C@@H](CO)N(CC(C)C)S(=O)(=O)c1ccc(CN)cc1)C(c1ccccc1)c1ccccc1` [formula (III), (S)—(S)-(1-{5-[(4-Aminomethyl-benzenesulfonyl)-isobutyl-amino]-6-hydroxy-hexylcarbamoyl}-2,2-diphenyl-ethyl)-carbamic acid methyl ester], the EC50 in assay [1] (Human immunodeficiency virus 1, 72 h, read-out: pEC50-r13363 (converted)) was 31.6 nM; in assay [2] (Human immunodeficiency virus 1, 72 h, wild type (IIIB), MT4-LTR-EGFP cells, three days incubation, read-out: pEC50—IIIB (converted)), 31.6 nM. Further, the “anti-HIV activity against wild type laboratory HIV strain” value in assay [2] (MT4-LTR-EGFP cells, WT IIIB-2-001) is “potent anti-HIV activity”.
Consider `CC(C)(C)NC(=O)[C@@H]1CN(Cc2cccnc2)CCN1C[C@@H](O)C[C@@H](Cc1ccccc1)C(=O)N[C@H]1c2ccccc2C[C@H]1O` [IDV, indinavir], for which the figures for the EC50 in assay [1] (setting [3]) and in assay [2] (setting [4]) were 398 nM and 39.8 nM, respectively.
On the same counts, the results for `Cc1cccc(C)c1OCC(=O)N[C@@H](Cc1ccccc1)[C@@H](O)C[C@H](Cc1ccccc1)NC(=O)[C@H](C(C)C)N1CCCNC1=O` [LPV, lopinavir] are 631 nM and 12.6 nM.
Consider `CC(C)c1nc(CN(C)C(=O)N[C@H](C(=O)N[C@@H](Cc2ccccc2)C[C@H](O)[C@H](Cc2ccccc2)NC(=O)OCc2cncs2)C(C)C)cs1` [RTV, ritonavir], for which the EC50 in assay [1] (setting [3]) was 10000 nM; in assay [2] (setting [4]) it was 63.1 nM.
